Data from patent US6737383B1, “Herbicidal oxadiazolidines” (priority 1999, dated 2004).

Assays:
[1] = tested on: scentless chamomile; test: Test E scentless chamomile; format: in vivo, Matricaria inodora; conditions: Postemergence
Method: (§1) Compounds evaluated in this test were formulated in a non-phytotoxic solvent mixture which included a surfactant and applied to plants that were in the 1- to 4-leaf stage (postemergence application). A mixture of sandy loam soil and greenhouse potting mix in a 60:40 ratio was used for the postemergence test.
(§2) Plantings of these crops and weed species were adjusted to produce plants of appropriate size for the postemergence test. All plant species were grown using normal greenhouse practices. Crop and weed species include annual bluegrass (Poa annua), blackgrass (Alopecurus myosuroides), black nightshade (Solanum nigra), chickweed (Stellaria media), common poppy (Papaver rhoeas), deadnettle (Lamium amplexicaule), downy brome (Bromus tectorum), field violet (Viola arvensis), galium (Galium aparine), green foxtail (Setaria viridis), Italian ryegrass (Lolium multiflorum), jointed goatgrass (Aegilops cylindrica), kochia (Kochia scoparia), lambsquarters (Chenopodium album), littleseed canarygrass (Phalaris minor), rape (Brassica napus), redroot pigweed (Amaranthus retroflexus), Russian thistle (Salsola kali), scentless chamomile (Matricaria inodora), spring barley (Hordeum vulgare), sugar beet (Beta vulgaris), sunflower (Helianthus annuus), ivyleaf speedwell (Veronica hederaefolia), spring wheat (Triticum aestivum), winter wheat (Triticum aestivum), wild buckwheat (Polygonum convolvulus), wild mustard (Sinapis arvensis), wild oat (Avena fatua), windgrass (Apera spica-venti) and winter barley (Hordeum vulgare).
(§3) Treated plants and untreated controls were maintained in a greenhouse for approximately 21 to 28 days, after which all treated plants were compared to untreated controls and visually evaluated. […] A dash response (-) means no test result.

[2] = tested on: arrowleaf sida; test: Test C postemergence arrowleaf sida; format: in vivo, Sida rhombifolia; conditions: 0 to 100 scale, 0 no effect, 100 complete control
Method: as §1, with “grown for various periods of time before treatment” for “in the 1- to 4-leaf stage”
(§4) Plantings of these crops and weed species were adjusted to produce plants of appropriate size for the postemergence test. All plant species were grown using normal greenhouse practices. Crop and weed species include arrowleaf sida (Sida rhombifolia), barnyardgrass (Echinochloa crus-galli), cocklebur (Xanthium strumarium), common ragweed (Ambrosia elatior), corn (Zea mays), cotton (Gossypium hirsutum), eastern black nightshade (Solanum ptycanthum), fall panicum (Panicum dichotomiflorum), field bindweed (Convolvulus arvensis), giant foxtail (Setaria faberii), hairy beggarticks (Bidens pilosa), ivyleaf morningglory (Ipomoea hederacea), johnsongrass (Sorghum halepense), ladysthumb smartweed (Polygonum persicaria), lambsquarters (Chenopodium album), large crabgrass (Digitaria sanguinalis), purple nutsedge (Cyperus rotundus), redroot pigweed (Amaranthus retroflexus), soybean (Glycine max), surinam grass (Brachiaria decumbens), velvetleaf (Abutilon theophrasti) and wild poinsettia (Euphorbia heterophylla).
(§5) Treated plants and untreated controls were maintained in a greenhouse for approximately 14, to 21 days, after which all treated plants were compared to untreated controls and visually evaluated. Plant response ratings, summarized in Table C, were based upon a 0 to 100 scale where 0 was no effect and 100 was complete control. A dash response (−) means no test result.

[3] = tested on: blackgrass; test: Test E blackgrass; format: in vivo, Alopecurus myosuroides; conditions: Postemergence
Method: as §1, §2, §3

[4] = tested on: barnyardgrass; test: Test C postemergence barnyardgrass; format: in vivo, Echinochloa crus-galli; conditions: 0 to 100 scale, 0 no effect, 100 complete control
Procedure, shortened: (§6)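 Postemergence spray; formulation = non-phytotoxic solvent + surfactant; soil 60:40 sandy loam:greenhouse potting mix; greenhouse, ~14–21 d; visual rating vs untreated, 0–100 (100 = complete control).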

[5] = tested on: purple nutsedge; test: Test C postemergence purple nutsedge; format: in vivo, Cyperus rotundus; conditions: 0 to 100 scale, 0 no effect, 100 complete control
Procedure, shortened: as §6

[6] = tested on: black nightshade; test: Test E black nightshade; format: in vivo, Solanum nigra; conditions: Preemergence
[7] = tested on: kochia; test: Test E kochia; format: in vivo, Kochia scoparia; conditions: Postemergence
Procedure, shortened: (§7)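 Compounds formulated in non-phytotoxic solvent mixture with surfactant; for postemergence, sprayed on plants at 1- to 4-leaf stage grown in 60:40 sandy loam/greenhouse potting mix. Kept in greenhouse ~21 to 28 days, then visually rated against untreated controls.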

[8] = tested on: chickweed; test: Test E chickweed; format: in vivo, Stellaria media; conditions: Postemergence
Method: as §1, §2, §3

[9] = tested on: ivyleaf morningglory; test: Test C postemergence ivyleaf morningglory; format: in vivo, Ipomoea hederacea; conditions: 0 to 100 scale, 0 no effect, 100 complete control
Method: as §1, with “grown for various periods of time before treatment” for “in the 1- to 4-leaf stage”
as §4, §5

[10] = tested on: fall panicum; test: Test C postemergence fall panicum; format: in vivo, Panicum dichotomiflorum; conditions: 0 to 100 scale, 0 no effect, 100 complete control
Method: as §1, with “grown for various periods of time before treatment” for “in the 1- to 4-leaf stage”
as §4, §5

[11] = tested on: windgrass; test: Test E windgrass; format: in vivo, Apera spica-venti; conditions: Postemergence, Rate 62 g/ha; 0 to 100 scale
Method: as §1
Plantings of these crops and weed species were adjusted to produce plants of appropriate size for the postemergence test. All plant species were grown using normal greenhouse practices. […]
Treated plants and untreated controls were maintained in a greenhouse for approximately 21 to 28 days, after which all treated plants were compared to untreated controls and visually evaluated. […]

[12] = tested on: ivyleaf speedwell; test: Test E postemergence ivyleaf speedwell; format: in vivo, Veronica hederaefolia
Method: as §1, §2, §3

[13] = tested on: downy brome; test: Test E downy brome; format: in vivo, Bromus tectorum; conditions: Postemergence; for Plant response rating, Downy brome: 0 to 100 scale; for Plant response rating, Downy brortie: Rate 250 g/ha, 0 to 100 scale (0 no effect, 100 complete control)
Method: as §1, §2, §3

[14] = tested on: deadnettle; test: Test E deadnettle; format: in vivo, Lamium amplexicaule; conditions: Postemergence
Method: as §1, §2, §3

[15] = tested on: sugar beet; test: Test E sugar beet; format: in vivo, Beta vulgaris; conditions: Postemergence
Method: as §1, §2, §3

[16] = tested on: galium; test: Test E galium; format: in vivo, Galium aparine; conditions: Postemergence
Procedure, shortened: as §7

[17] = Rate 250 g/ha, 0 to 100 scale (0 no effect, 100 complete control)
[18] = Rate 500 g/ha, 0 to 100 scale, 0 no effect, 100 complete control
[19] = Rate 125 g/ha, 0 to 100 scale (0 no effect, 100 complete control)

SMILES: CCn1c(=O)on(C(=O)N(c2ccc(F)cc2F)C(C)C)c1=O [Compound 116]
- Plant response rating, Scentless chamo ([1]; Rate 62 g/ha, 0 to 100 scale): 50
- Plant response rating, Scentless chamo ([1]; Rate 125 g/ha, 0 to 100 scale): 0
- Plant response rating, Scentless chamo [1, 17]: 0
- Plant response rating, Scentless chamo [1, 18]: 40
- Plant response rating Arrowleaf sida ([2]; Rate 140 g/ha): 0
- Plant response rating Arrowleaf sida ([2]; Rate 560 g/ha): 85
- Plant response rating Arrowleaf sida ([2]; Rate 1120 g/ha): 90
- Plant response rating, Blackgrass ([3]; Rate 62 g/ha, 0 to 100 scale): 0
- Plant response rating, Blackgrass ([3]; Rate 125 g/ha, 0 to 100 scale): 40
- Plant response rating, Blackgrass [3, 17]: 80
- Plant response rating, Blackgrass [3, 18]: 80
- Plant response rating, Barnyardgrass ([4]; Rate 140 g/ha): 55
- Plant response rating, Barnyardgrass ([4]; Rate 280 g/ha): 85
- Plant response rating, Barnyardgrass ([4]; Rate 560 g/ha): 90
- Plant response rating, Barnyardgrass ([4]; Rate 1120 g/ha): 90
- Plant response rating, Purple nutsedge ([5]; Rate 140 g/ha): 0
- Plant response rating, Purple nutsedge ([5]; Rate 280 g/ha): 0
- Plant response rating, Purple nutsedge ([5]; Rate 560 g/ha): 10
- Plant response rating, Purple nutsedge ([5]; Rate 1120 g/ha): 10
- Plant response rating, Blk nightshade [6, 19]: 80
- Plant response rating, Blk nightshade ([6]; Rate 250 g/ha, 0 to 100 scale): 90
- Plant response rating, Blk nightshade ([6]; Rate 500 g/ha, 0 to 100 scale where 0 is no effect and 100 is complete control): 100
- Plant response rating, Kochia ([7]; Rate 62 g/ha, 0 to 100 scale): 0
- Plant response rating, Kochia ([7]; Rate 125 g/ha, 0 to 100 scale): 0
- Plant response rating, Kochia [7, 17]: 0
- Plant response rating, Kochia [7, 18]: 0
- Plant response rating, Chickweed ([8]; Rate 62 g/ha, 0 to 100 scale): 0
- Plant response rating, Chickweed ([8]; Rate 125 g/ha, 0 to 100 scale): 0
- Plant response rating, Chickweed [8, 17]: 20
- Plant response rating, Chickweed [8, 18]: 50
- Plant response rating I. morningglory ([9]; Rate 140 g/ha): 0
- Plant response rating I. morningglory ([9]; Rate 280 g/ha): 0
- Plant response rating I. morningglory ([9]; Rate 560 g/ha): 0
- Plant response rating I. morningglory ([9]; Rate 1120 g/ha): 20
- Plant response rating Fall panicum ([10]; Rate 140 g/ha): 10
- Plant response rating Fall panicum ([10]; Rate 280 g/ha): 60
- Plant response rating Fall panicum ([10]; Rate 560 g/ha): 85
- Plant response rating Fall panicum ([10]; Rate 1120 g/ha): 90
- Plant response rating, Windgrass [11]: 70
- Plant response rating, Veronica hedera ([12]; Rate 125 g/ha, 0 to 100 scale): 0
- Plant response rating, Veronica hedera [12, 17]: 0
- Plant response rating, Veronica hedera [12, 18]: 70
- Plant response rating, Downy brome ([13]; Rate 62 g/ha): 0
- Plant response rating, Downy brome ([13]; Rate 125 g/ha): 0
- Plant response rating, Downy brortie [13]: 30
- Plant response rating, Downy brome ([13]; Rate 500 g/ha, 0 no effect, 100 complete control): 60
- Plant response rating, Deadnettle ([14]; Rate 62 g/ha, 0 to 100 scale): 0
- Plant response rating, Deadnettle ([14]; Rate 125 g/ha, 0 to 100 scale): 0
- Plant response rating, Deadnettle [14, 17]: 20
- Plant response rating, Deadnettle [14, 18]: 50
- Plant response rating, Sugar beet ([15]; Rate 62 g/ha, 0 to 100 scale): 0
- Plant response rating, Sugar beet ([15]; Rate 125 g/ha, 0 to 100 scale): 0
- Plant response rating, Sugar beet [15, 17]: 0
- Plant response rating, Sugar beet [15, 18]: 0
- Plant response rating, Galium ([16]; Rate 62 g/ha, 0 to 100 scale): 30
- Plant response rating, Galium ([16]; Rate 125 g/ha, 0 to 100 scale): 40
- Plant response rating, Galium [16, 17]: 40
- Plant response rating, Galium [16, 18]: 70

SMILES: CCn1c(=O)on(C(=O)N(c2ccc(F)cc2)C(C)C)c1=O [Compound 107]
- Plant response rating, Scentless chamo ([1]; Rate 62 g/ha, 0 to 100 scale): 10
- Plant response rating, Scentless chamo ([1]; Rate 125 g/ha, 0 to 100 scale): 0
- Plant response rating, Scentless chamo [1, 17]: 10
- Plant response rating Arrowleaf sida ([2]; Rate 280 g/ha): 30
- Plant response rating Arrowleaf sida ([2]; Rate 560 g/ha): 75
- Plant response rating Arrowleaf sida ([2]; Rate 1120 g/ha): 85
- Plant response rating, Blackgrass ([3]; Rate 62 g/ha, 0 to 100 scale): 5
- Plant response rating, Blackgrass ([3]; Rate 125 g/ha, 0 to 100 scale): 80
- Plant response rating, Blackgrass [3, 17]: 85
- Plant response rating, Barnyardgrass ([4]; Rate 140 g/ha): 70
- Plant response rating, Barnyardgrass ([4]; Rate 280 g/ha): 85
- Plant response rating, Barnyardgrass ([4]; Rate 560 g/ha): 90
- Plant response rating, Barnyardgrass ([4]; Rate 1120 g/ha): 95
- Plant response rating, Purple nutsedge ([5]; Rate 140 g/ha): 0
- Plant response rating, Purple nutsedge ([5]; Rate 280 g/ha): 0
- Plant response rating, Purple nutsedge ([5]; Rate 560 g/ha): 10
- Plant response rating, Purple nutsedge ([5]; Rate 1120 g/ha): 10
- Plant response rating, Blk nightshade ([6]; Rate 62 g/ha, 0 to 100 scale, 0 no effect, 100 complete control): 70
- Plant response rating, Blk nightshade [6, 19]: 95
- Plant response rating, Blk nightshade ([6]; Rate 250 g/ha, 0 to 100 scale): 95
- Plant response rating, Kochia ([7]; Rate 62 g/ha, 0 to 100 scale): 5
- Plant response rating, Kochia ([7]; Rate 125 g/ha, 0 to 100 scale): 20
- Plant response rating, Kochia [7, 17]: 15
- Plant response rating, Chickweed ([8]; Rate 62 g/ha, 0 to 100 scale): 10
- Plant response rating, Chickweed ([8]; Rate 125 g/ha, 0 to 100 scale): 0
- Plant response rating, Chickweed [8, 17]: 0
- Plant response rating I. morningglory ([9]; Rate 140 g/ha): 10
- Plant response rating I. morningglory ([9]; Rate 280 g/ha): 30
- Plant response rating I. morningglory ([9]; Rate 560 g/ha): 30
- Plant response rating I. morningglory ([9]; Rate 1120 g/ha): 95
- Plant response rating Fall panicum ([10]; Rate 140 g/ha): 50
- Plant response rating Fall panicum ([10]; Rate 280 g/ha): 60
- Plant response rating Fall panicum ([10]; Rate 560 g/ha): 85
- Plant response rating Fall panicum ([10]; Rate 1120 g/ha): 85
- Plant response rating, Windgrass [11]: 85
- Plant response rating, Veronica hedera ([12]; Rate 62 g/ha, 0 to 100 scale): 10
- Plant response rating, Veronica hedera ([12]; Rate 125 g/ha, 0 to 100 scale): 0
- Plant response rating, Veronica hedera [12, 17]: 10
- Plant response rating, Downy brome ([13]; Rate 62 g/ha): 0
- Plant response rating, Downy brome ([13]; Rate 125 g/ha): 10
- Plant response rating, Downy brortie [13]: 0
- Plant response rating, Deadnettle ([14]; Rate 62 g/ha, 0 to 100 scale): 0
- Plant response rating, Deadnettle ([14]; Rate 125 g/ha, 0 to 100 scale): 5
- Plant response rating, Deadnettle [14, 17]: 50
- Plant response rating, Sugar beet ([15]; Rate 62 g/ha, 0 to 100 scale): 10
- Plant response rating, Sugar beet ([15]; Rate 125 g/ha, 0 to 100 scale): 10
- Plant response rating, Sugar beet [15, 17]: 40
- Plant response rating, Galium ([16]; Rate 62 g/ha, 0 to 100 scale): 5
- Plant response rating, Galium ([16]; Rate 125 g/ha, 0 to 100 scale): 30
- Plant response rating, Galium [16, 17]: 30
